Measured values reported in PubChem BioAssay AID720495 (Broad Institute, 2013).
Several values for one entry are separate records, joined by “and”; a condition that tells them apart may be missing. Equal values may be shown once. Results filed as inconclusive are left out. Activity calls are given as the source filed them. How the calls were made is not given here.

The compounds below were run against Protein AF-9 (Homo sapiens) (UniProt P42568) (assay: inhibitors of AF4-AF9 protein interaction, dose response, biochemical, cherry-picked samples, plate reader (AID 720495)). Conditions: biochemical protein-protein interaction assay.
Protein AF-9 (Homo sapiens), sequence (P42568 whole entry, looked up): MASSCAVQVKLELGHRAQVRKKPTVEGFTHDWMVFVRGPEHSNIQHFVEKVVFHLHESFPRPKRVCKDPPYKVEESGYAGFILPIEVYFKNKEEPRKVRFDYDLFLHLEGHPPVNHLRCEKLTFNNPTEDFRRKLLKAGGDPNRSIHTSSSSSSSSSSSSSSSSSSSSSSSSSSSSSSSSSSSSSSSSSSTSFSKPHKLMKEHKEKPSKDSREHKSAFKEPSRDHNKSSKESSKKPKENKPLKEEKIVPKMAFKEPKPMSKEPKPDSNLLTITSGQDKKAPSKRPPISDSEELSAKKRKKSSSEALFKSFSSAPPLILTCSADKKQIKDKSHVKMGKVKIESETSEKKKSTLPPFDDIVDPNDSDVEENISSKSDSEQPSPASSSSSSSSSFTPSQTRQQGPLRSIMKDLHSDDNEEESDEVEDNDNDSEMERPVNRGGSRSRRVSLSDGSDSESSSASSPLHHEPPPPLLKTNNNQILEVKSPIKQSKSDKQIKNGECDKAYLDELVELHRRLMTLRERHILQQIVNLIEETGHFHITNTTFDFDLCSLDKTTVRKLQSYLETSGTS
`CCOc1ccc(NCc2cccn2-c2nnc(N3CCC(C(=O)NCCCN4CCCCC4)CC3)s2)cc1` showed an AC50 of 5.94 µM.
With `CN(C)CCNc1ncnc2c1sc1nc(-c3ccccc3)c3c(c12)CCCC3` the AC50 was 6.89 µM.
Work on `CCN1CCN(c2ccc(N)cc2C)CC1` yielded an AC50 of 6.46 µM.
In the case of `Cn1c(=O)cc2c3c(c(N4CCCCC4)ccc31)C(=O)c1ccccc1-2`, the AC50 was 8.32 µM.
In the case of `CCOC(=O)c1c(-c2ccc(-c3ccccc3)cc2)csc1NC(=O)CNCCN(C)C`, the AC50 was 5.86 µM.
`O=C(Nc1ccc(N2CCCCCC2)cc1)c1ccc[nH]1` was tested, and the AC50 was 5.21 µM.
Work on `CN(C)c1ccc(Nc2nc(N)c3ccccc3n2)cc1` yielded an AC50 of 7.47 µM.
`Cc1[nH]c2ccc(O)cc2c1CCN` showed an AC50 of 5.35 µM.
`CCn1c(-c2ccccc2)csc1=Nc1ccc(O)cc1` showed an AC50 of 6.97 µM.
With `C[C@H](CO)N1C[C@H](C)[C@@H](CN(C)Cc2ccc(Cl)c(Cl)c2)Oc2ccc(N(C)C)cc2CC1=O` the AC50 was 10.8 µM.
For `C[C@@H]1CN([C@@H](C)CO)C(=O)c2cc(N(C)C)ccc2O[C@@H](C)CCCCO[C@@H]1CN(C)Cc1ccc(C(F)(F)F)cc1`, the AC50 was 10.5 µM.
Work on `COc1ccc(C#Cc2ccc3c(c2)[C@H]2[C@H](CCN2C(=O)c2ccncc2)[C@@H](CO)N3)cc1` yielded an AC50 of 10.7 µM.
For `O=C1c2ccccc2NC(c2cccc([N+](=O)[O-])c2)N1O` (stereo not given), the AC50 was 11.2 µM.
Work on `N=C(N)c1ccc(/C=C/c2ccc(C(=N)N)cc2O)cc1` yielded an AC50 of 3.33 µM.
With `Cc1[nH]c2ccccc2c1N=Nc1ccccc1F` the AC50 was 10.2 µM.
Compound `CCC[C@@H](CN1CCC[C@H]1CN1C(N)=NC[C@@H]1Cc1ccccc1)N1C[C@@H](Cc2ccccc2)N(CCc2ccc(Cl)c(Cl)c2)C1=N` has an AC50 of 5.41 µM.
`Oc1cc(-c2ccncc2)cc2cccnc12` showed an AC50 of 3.01 µM.
Work on `CN1CCN(c2ccc(N)cc2Cl)CC1` yielded an AC50 of 2.11 µM.
Work on `CCCC(=O)NC(c1ccc(OC)cc1)c1ccc2cccnc2c1O` (stereo not given) yielded an AC50 of 0.865 µM.
`CCN(CCCNc1cc2c(c(N)c1S(=O)(=O)O)C(=O)c1ccccc1C2=O)c1ccccc1` was tested, and the AC50 was 3.65 µM.
`C[n+]1c(-c2ccc(C=NNC(=O)c3ccc(C(=O)NN=Cc4ccc(-c5cn6ccccc6[n+]5C)cc4)cc3)cc2)cn2ccccc21` showed an AC50 of 0.804 µM.
With `Cc1ccn2c(Nc3ccc4c(c3)OCO4)c(-c3ccccn3)nc2c1` the AC50 was 3.55 µM.
`O=C1c2ccccc2-c2onc3ccc(N4CCCC4)c1c23` showed an AC50 of 5.49 µM.
For `CC(C)Nc1ccc(Nc2ccnc3cc4ccccc4cc23)cc1`, the AC50 was 2.45 µM.
`CN(C)c1cccc2c(C=C(C#N)C#N)ccc(N(C)C)c12` was tested, and the AC50 was 1.04 µM.
For `c1ccc2c(NCCc3c[nH]c4ccccc34)c3ccccc3nc2c1`, the AC50 was 5.9 µM.
With `NC(N)=NCCCS(=O)(=O)Nc1ccc(Nc2c3ccccc3nc3cc([N+](=O)[O-])ccc23)cc1` the AC50 was 2.85 µM.
Work on `COC(=O)c1ccc2nc(C)cc(Nc3ccc(N(C)C)cc3)c2c1` yielded an AC50 of 4.41 µM.
`COc1ccc(S(=O)(=O)/N=C2\C=C(Nc3ccc(O)cc3)C(=O)c3ccccc32)cc1` showed an AC50 of 0.724 µM.
For `C#CCOCCOCCOCCNc1nc(N2CCN(C(=O)[C@H](CCCCN)n3cc(CCCC)nn3)CC2)nc(N2CCN(C(=O)[C@H](CCCCN)n3cc(CCCC)nn3)CC2)n1`, the AC50 was 11.3 µM.
Work on `CC[n+]1c(/C=C/c2ccc(N(C)C)cc2)ccc2ccccc21` yielded an AC50 of 8.28 µM.
For `CN(C)c1ccc(/C=C/C=C/c2sc3ccccc3[n+]2C)cc1`, the AC50 was 2.09 µM.
In the case of `CN(C)c1ccc(N=Cc2cccn2C)cc1`, the AC50 was 0.83 µM.
For `COc1ccccc1C#Cc1ccc2c(c1)[C@H]1[C@H](CCN1C(=O)c1ccncc1)[C@@H](CO)N2`, the AC50 was 7.63 µM.
Compound `COc1ccccc1C(CCNCc1ccc(N(C)C)cc1)c1ccc(OC(C)C)cc1` (stereo not given) has an AC50 of 3.3 µM.
In the case of `Oc1ccc(O)c(C=NNC(=S)NC2CC3CC2C2C=CCC32)c1` (stereo not given), the AC50 was 8.16 µM.
For `COc1ccc2c(c1)c(=Cc1ccc(N(C)C)cc1)c1cc(-c3ccccc3)[n+](C)n12`, the AC50 was 2.49 µM.
In the case of `c1ccc(N=Nc2ccc3cccccc2-3)cc1`, the AC50 was 0.232 µM.
`NCC(O)c1cc(O)c(O)cc1F` (stereo not given) showed an AC50 of 6.14 µM.
For `Oc1c(C(c2ccccc2Cl)N2CCCC2)ccc2cccnc12` (stereo not given), the AC50 was 0.995 µM.
Work on `CN(C)c1cc2c3ccccc3n(C)c2cc1N` yielded an AC50 of 1.08 µM.
With `COc1ccc(N2CCN(CCCNC(=O)CCC(=O)N3CCOc4ccc(Cl)cc43)CC2)cc1` the AC50 was 11.5 µM.
For `Cc1[nH]c2ccccc2c1C(C#N)(C#N)C1C(=O)c2ccccc2C1=O`, the AC50 was 0.981 µM.
In the case of `COc1cc(O)c(C(CCN2CCCCC2)c2ccc(N(C)C)cc2)c(OC)c1` (stereo not given), the AC50 was 10.2 µM.
Work on `CCN(CC)c1ccc(C(=C2C=CC(=[N+](CC)CC)C=C2)c2ccc(N(CC)CC)cc2)cc1` yielded an AC50 of 0.153 µM.
For `Oc1cc(NCCN2CCOCC2)cc2cccnc12`, the AC50 was 7.86 µM.
Work on `C#CCOCCOCCOCCNc1nc(N2CCN(C(=O)[C@H](CCCCN)n3cc([C@@H](N)C(C)CC)nn3)CC2)nc(N2CCN(C(=O)[C@H](CCCCN)n3cc([C@@H](N)CC(C)C)nn3)CC2)n1` (stereo not given in full) yielded an AC50 of 0.702 µM.
For `CCN(CC)c1ccc(C(=C2C=CC(=[N+](CC)CC)C=C2)c2ccc(S(=O)(=O)O)cc2S(=O)(=O)[O-])cc1`, the AC50 was 4.29 µM.
`Cc1ccc2c(c1)C1CN(C)CCC1N2Sc1ccccc1[N+](=O)[O-]` (stereo not given) gave an AC50 of 5.01 µM.
Compound `CCOc1ccc(NCc2cccn2-c2nnc(N3CCC(C(=O)NCCCN4CCCCC4CC)CC3)s2)cc1` (stereo not given) has an AC50 of 4.01 µM.
For `CN1CCN(C2CCN(Cc3ccc(O)c4ncccc34)CC2)CC1`, the AC50 was 2.77 µM.
With `COc1cc(OC)c2c(c1C(CCN1CCOCC1)c1ccc(N(C)C)cc1)OC(=O)CC2c1ccc(N(C)C)cc1` (stereo not given) the AC50 was 10.7 µM.
For `CN(C)CC/C=C1\c2ccc(F)cc2Sc2cc(F)c(Cl)cc21`, the AC50 was 9.52 µM.
With `O=C1c2c(O)ccc(O)c2C(=O)c2c(NCCNCCO)ccc(NCCNCCO)c21` the AC50 was 0.15 µM and 0.374 µM.

Same assay, conditions: biochemical protein-protein interaction assay, at 10 µM (top of the series)
In the case of `COc1ccccc1NC(c1cccnc1)c1ccc2cccnc2c1O` (stereo not given), the “activity change, negative = inhibition” value was “inactive”.
`Cc1oc(-c2cccc3ccccc23)nc1CN1CCN(c2ncnc3ccccc23)CC1` was tested, and the “activity change, negative = inhibition” value was “inactive”.
For `O=C(NC1CCCCC1)C(c1cccs1)N(CCCN1CCOCC1)C(=O)c1ccc(-c2ccccc2)[nH]1` (stereo not given), the “activity change, negative = inhibition” value was “inactive”.
For `C(=C\c1ccncc1)/c1ccncc1`, the “activity change, negative = inhibition” value was “inactive”.
`CN=c1scc(-c2ccccc2F)n1/N=C(\C)c1cccnc1` was tested, and the “activity change, negative = inhibition” value was “inactive”.
In the case of `Cc1ccc(Nc2cc(C)nc3c(C)ccc([N+](=O)[O-])c23)cc1`, the “activity change, negative = inhibition” value was “inactive”.
With `Cc1ccc2ccc(C(Nc3cccc(C(F)(F)F)c3)c3cccnc3)c(O)c2n1` (stereo not given) the “activity change, negative = inhibition” value was “inactive”.
For `C[n+]1c2n(c3ccccc31)N=C(c1cc(C(C)(C)C)c(O)c(C(C)(C)C)c1)CS2`, the “activity change, negative = inhibition” value was “inactive”.
For `COc1ccc(N2CCN(c3cc(C)nc4ccc(OC)cc34)CC2)cc1`, the “activity change, negative = inhibition” value was “inactive”.
`COc1ccc(N=C2S/C(=C\c3ccc(Cl)c([N+](=O)[O-])c3)C(=O)N2CCN(C)C)cc1` was tested, and the “activity change, negative = inhibition” value was “inactive”.
`COc1cccc(OCC(O)CN2CCC(CN3C(=O)c4cccc5cccc(c45)C3=O)CC2)c1` (stereo not given) was tested, and the “activity change, negative = inhibition” value was “inactive”.
In the case of `CN(C)c1ccc(NC(=O)Cn2cc3c(n2)CCCC3)cc1`, the “activity change, negative = inhibition” value was “inactive”.
With `CC1C/C(=C/c2cccs2)C(=O)/C(=C/c2cccs2)C1` (stereo not given) the “activity change, negative = inhibition” value was “inactive”.
With `CCOc1ccc(Nc2nc(NCC3CCCO3)c3ccccc3n2)cc1` (stereo not given) the “activity change, negative = inhibition” value was “inactive”.
For `CCCCOc1ccc2c(c1)C(=O)c1cc(O)ccc1-2`, the “activity change, negative = inhibition” value was “inactive”.
With `Nc1ccc(N)c(C(=O)O)c1` the “activity change, negative = inhibition” value was “inactive”.
With `C[C@H](CO)N1C[C@H](C)[C@H](CN(C)Cc2ccc(C(F)(F)F)cc2)OCCCC[C@H](C)Oc2ccc(N(C)C)cc2C1=O` the “activity change, negative = inhibition” value was “inactive”.
For `Cc1cc(N=Nc2ccc(Cl)cc2)cc(CN2CCOCC2)c1O`, the “activity change, negative = inhibition” value was “inactive”.
In the case of `CN=c1scc(-c2ccc(OC)cc2)n1/N=C(\C)c1cccnc1`, the “activity change, negative = inhibition” value was “inactive”.
For `Cc1ccc(S(=O)(=O)NC(=O)Nc2ccc(N(C)C)cc2)cc1`, the “activity change, negative = inhibition” value was “inactive”.
In the case of `O=S(=O)(c1ccc(Cl)cc1)N1CCN(Cc2ccc(O)c3ncccc23)CC1`, the “activity change, negative = inhibition” value was “inactive”.
In the case of `Cc1ccc(NC(=S)N(CCCN2CCCC2)Cc2cccn2Cc2ccc(Cl)cc2)cc1`, the “activity change, negative = inhibition” value was “inactive”.
For `S=C(c1ccc(-c2cccc(Cl)c2)o1)N1CCOCC1`, the “activity change, negative = inhibition” value was “inactive”.
With `Nc1ccccc1Nc1cc(-c2ccccc2)nn1-c1cccc(Cl)c1` the “activity change, negative = inhibition” value was “inactive”.
`CN(C)c1ccnc2c[cH-]cc12.[Fe].c1ccc(-[c-]2[c-](-c3ccccc3)[c-](-c3ccccc3)[c-](-c3ccccc3)[c-]2-c2ccccc2)cc1` (stereo not given) was tested, and the “activity change, negative = inhibition” value was “inactive”.
For `Cc1nn(-c2ccccc2)c(Cl)c1/C=C1\C(=O)N(C)C(=S)N1C`, the “activity change, negative = inhibition” value was “inactive”.
In the case of `Fc1ccc([C@@H]2CCNC[C@H]2COc2ccc3c(c2)OCO3)cc1`, the “activity change, negative = inhibition” value was “inactive”.
With `CCOc1cc(/C=N/N=C(N)N)ccc1OCc1ccc(Cl)cc1` the “activity change, negative = inhibition” value was “inactive”.
`CCCCCN=C(N)N/N=C/c1c[nH]c2ccc(OC)cc12` was tested, and the “activity change, negative = inhibition” value was “inactive”.
With `O=C(NCCc1cccc(F)c1)C1CCCN(c2nc3ccccc3s2)C1` (stereo not given) the “activity change, negative = inhibition” value was “inactive”.
`COc1ccccc1N1CCN(/N=C\c2sccc2C)CC1` was tested, and the “activity change, negative = inhibition” value was “inactive”.
For `Cc1cccc(Nc2cc(C)c3c(O)cccc3n2)c1C`, the “activity change, negative = inhibition” value was “inactive”.
In the case of `COc1ccc(-c2oc3ccccc3c(=O)c2OC(C)=O)cc1`, the “activity change, negative = inhibition” value was “inactive”.
With `COc1cc2c(cc1N)-c1ccc(N)cc1C2=O` the “activity change, negative = inhibition” value was “inactive”.
In the case of `C/C(=N\Nc1nc2ccccc2[nH]1)c1ccc2c(c1)OCO2`, the “activity change, negative = inhibition” value was “inactive”.
For `COc1ccc(OC)c(C2=NOC(C(=O)Nc3c(C)n(C)n(-c4ccccc4)c3=O)C2)c1` (stereo not given), the “activity change, negative = inhibition” value was “inactive”.
`C[C@@H]1CN([C@H](C)CO)C(=O)c2c(c3ccccc3n2C)-c2ccccc2CO[C@@H]1CN(C)Cc1ccc2c(c1)OCCN2C` was tested, and the “activity change, negative = inhibition” value was “inactive”.
`C#CCOCCOCCOCCNc1nc(N2CCN(C(=O)[C@H](CCCN=C(N)N)n3cc(C(N)[C@@H](C)CC)nn3)CC2)nc(N2CCN(C(=O)[C@H](CCCCN)n3cc([C@@H](N)CC(N)=O)nn3)CC2)n1` (stereo not given in full) was tested, and the “activity change, negative = inhibition” value was “inactive”.
`Fc1ccc(-[n+]2nc(Nc3ccccc3)sc2-c2c(Cl)cccc2Cl)cc1` was tested, and the “activity change, negative = inhibition” value was “inactive”.
In the case of `COc1ccc(N2CCN(C(=O)C3CCCN(S(=O)(=O)c4c(C)noc4C)C3)CC2)cc1` (stereo not given), the “activity change, negative = inhibition” value was “inactive”.
`Cc1cc2c(=Cc3ccc(N(C)C)cc3)c3ccccc3n2[n+]1C` was tested, and the “activity change, negative = inhibition” value was “inactive”.
